This note sets out measurements from PubChem BioAssay (NCI).

“And” between values parts separate entries of the source, which are not always exact repeats. Equal entries are not always repeated.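 1) Cells in 96-well plates. 2) Compound, 48 h, 5 concentrations. 3) Linear interpolation between surrounding doses. 4) Unreached endpoint = highest concentration. Definition used: TGI = concentration required for complete inhibition of growth.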 A value given as a limit tells only on which side of the number the result lay.

Among the test systems are 786-0 renal; A498 renal; A549 NSCLC; HCT-116 colon; NCI-H23 lung; NCI-H522 lung; OVCAR-4 ovarian; SNB-19 CNS; U251 CNS; CCRF-CEM leukemia.
Assay in all cases: inhibition of tumour cell growth, NCI panel, 48 h

On to `N#Cc1c(N)c(-c2ccc(Cl)cc2)c(F)c2ccccc12`, for which the TGI in the test with 786-0 renal, with A498 renal, in the test with A549 NSCLC, with HCT-116 colon, with NCI-H23 lung and with NCI-H522 lung was above 100 µM throughout. For the same compound, the TGI in the test on OVCAR-4 ovarian, in the test on SNB-19 CNS and with U251 CNS was above 100 µM in each case.
For `CCOC(=O)CCC1(C(=O)OC)CCCC1=O` (stereo not given), the TGI with 786-0 renal, in the test with A498 renal, in the test on A549 NSCLC, in the test on HCT-116 colon, in the test with NCI-H23 lung and with NCI-H522 lung was above 100 µM throughout. Further, the TGI in the test on SNB-19 CNS and in the test on U251 CNS was above 100 µM each time.
`O=c1[nH]c(=O)n(C2CC(O)C(CO)O2)cc1C#Cc1ccc(C(F)(F)F)cc1` (stereo not given): the TGI in the test on 786-0 renal, in the test on A549 NSCLC, with CCRF-CEM leukemia, in the test on HCT-116 colon, with NCI-H23 lung and with NCI-H522 lung was above 100 µM in each case. The TGI in the test with OVCAR-4 ovarian, in the test with SNB-19 CNS and in the test on U251 CNS was above 100 µM throughout.
Regarding `O=C1CCC2(CCC(=O)NC2=O)C(=O)N1`, the TGI in the test on 786-0 renal, in the test with A549 NSCLC, with CCRF-CEM leukemia, with HCT-116 colon, in the test with NCI-H23 lung and in the test on NCI-H522 lung was above 100 µM in each case. The TGI with SNB-19 CNS and with U251 CNS was above 100 µM throughout.
Take `CC1=NN(C(=O)CC(=O)Nc2cccc(Cl)c2)C(=O)C1N=Nc1ccc(S(N)(=O)=O)cc1` (stereo not given): the TGI in the test on 786-0 renal, in the test with A498 renal, in the test on A549 NSCLC, in the test with HCT-116 colon, in the test on NCI-H23 lung and in the test with NCI-H522 lung was above 100 µM in each case. For the same compound, the TGI in the test on OVCAR-4 ovarian, in the test on SNB-19 CNS and in the test on U251 CNS was above 100 µM throughout.
On to `C/C(=N\N(C)C)C(CN(C)C)C(c1ccccc1)c1c(O)c2ccccc2oc1=O` (stereo not given), for which the TGI in the test with 786-0 renal, in the test with A549 NSCLC, in the test on CCRF-CEM leukemia, in the test on HCT-116 colon, in the test with NCI-H23 lung and in the test on NCI-H522 lung was above 100 µM each time. Besides, the TGI in the test on OVCAR-4 ovarian, in the test with SNB-19 CNS and in the test with U251 CNS was above 100 µM in each case.
Turning to `CC(=O)O[C@]12CCCCCCC1C1(O)C(O)CCC[C@H]12` (stereo not given in full), the TGI in the test on 786-0 renal, with A549 NSCLC, in the test with CCRF-CEM leukemia, in the test on HCT-116 colon, with NCI-H23 lung and in the test on NCI-H522 lung was above 100 µM throughout. Also, the TGI with OVCAR-4 ovarian, with SNB-19 CNS and in the test with U251 CNS was above 100 µM each time.
For `Brc1ccc(N2C[N+](c3ccc(Br)cc3)=NC(c3ccccc3)=N2)cc1`, the TGI with 786-0 renal was 29.5 µM and > 100 µM; in the test on A498 renal, 32.8 µM and > 100 µM; with A549 NSCLC it was 33.6 µM and > 100 µM; in the test on HCT-116 colon, 32.9 µM and > 100 µM; in the test on NCI-H23 lung, 31.7 µM and > 100 µM; in the test with NCI-H522 lung, 36.4 µM and > 100 µM. Also, the TGI in the test with OVCAR-4 ovarian was 35.3 µM and > 100 µM; in the test on SNB-19 CNS, 32.6 µM and > 100 µM; with U251 CNS it was 33.5 µM and > 100 µM.
As to `NC1=NS(=O)(=O)N=C(N)C1=Cc1ccc([N+](=O)[O-])o1`, the TGI is 30.8 µM in the test with 786-0 renal; above 100 µM in the test with A549 NSCLC; 92.8 µM in the test on CCRF-CEM leukemia; 28.7 µM in the test with HCT-116 colon; 31.4 µM with NCI-H23 lung; 31.5 µM with NCI-H522 lung. Moreover, the TGI in the test on OVCAR-4 ovarian is 34.1 µM; with SNB-19 CNS it was above 100 µM; in the test with U251 CNS it was above 100 µM.
On to `c1ccc(C2=NN3CN(N2)c2ccccc2OCCCOc2ccccc23)cc1`, for which the TGI with 786-0 renal, with A549 NSCLC, in the test on CCRF-CEM leukemia, in the test with HCT-116 colon, in the test with NCI-H23 lung and in the test with NCI-H522 lung was above 100 µM throughout. The TGI in the test on OVCAR-4 ovarian, in the test with SNB-19 CNS and in the test on U251 CNS was above 100 µM each time.
Turning to `CC(C)(CN1CCCCC1)C(=O)CC(SCCS(=O)(=O)O)c1ccc(Br)cc1` (stereo not given), the TGI worked out at 2.71 µM with 786-0 renal; 5.73 µM with A498 renal; 4.78 µM with A549 NSCLC; 3.04 µM in the test on HCT-116 colon; 5.9 µM in the test with NCI-H23 lung; 2.9 µM in the test on NCI-H522 lung. The TGI in the test with OVCAR-4 ovarian stood at 4.06 µM; in the test with SNB-19 CNS it was 5.44 µM; in the test with U251 CNS, 3.16 µM.
Consider `Cc1ccc(S(=O)(=O)C(C#N)c2nc3ccccc3nc2-n2cccn2)cc1` (stereo not given), for which the TGI with 786-0 renal, with A549 NSCLC, with CCRF-CEM leukemia, in the test on HCT-116 colon, in the test with NCI-H23 lung and with OVCAR-4 ovarian was above 100 µM throughout. The TGI in the test with SNB-19 CNS and in the test with U251 CNS was above 100 µM in each case.
